Assay results published in patent publication US20230365568A1, “PLK1 POLO BOX DOMAIN INHIBITORS AND METHOD OF TREATING CANCER” (The United States of America,as represented by the …, priority 2020, published 2023).
Where two headings read alike, the source gives them in different places.

Key:
[1] = tested on: multiple myeloma-derived L363 cells; test: MTS cell proliferation assay in L363 cells; type: cell-based; conditions: for GI50: read-out: Cell efficacy, GI50 ± sd
Procedure: MTS Assay. […] 96™ AQueous One Solution Cell Proliferation Assay (MTS) kit (Promega, WI). Briefly, asynchronously growing L363 cells cultured in a 96-well plate were treated with the indicated compounds for 48 h.

Aqueous solubility = conditions: aqueous solubility
full-length human Plk1 = full-length human Plk1 (Homo sapiens (Human), UniProt P53350); test: ELISA-based Plk1 PBD-binding inhibition assay; conditions: for IC50: Plk1 PBD, n = 3 unless noted
Chain of full-length human Plk1 (P53350 whole entry): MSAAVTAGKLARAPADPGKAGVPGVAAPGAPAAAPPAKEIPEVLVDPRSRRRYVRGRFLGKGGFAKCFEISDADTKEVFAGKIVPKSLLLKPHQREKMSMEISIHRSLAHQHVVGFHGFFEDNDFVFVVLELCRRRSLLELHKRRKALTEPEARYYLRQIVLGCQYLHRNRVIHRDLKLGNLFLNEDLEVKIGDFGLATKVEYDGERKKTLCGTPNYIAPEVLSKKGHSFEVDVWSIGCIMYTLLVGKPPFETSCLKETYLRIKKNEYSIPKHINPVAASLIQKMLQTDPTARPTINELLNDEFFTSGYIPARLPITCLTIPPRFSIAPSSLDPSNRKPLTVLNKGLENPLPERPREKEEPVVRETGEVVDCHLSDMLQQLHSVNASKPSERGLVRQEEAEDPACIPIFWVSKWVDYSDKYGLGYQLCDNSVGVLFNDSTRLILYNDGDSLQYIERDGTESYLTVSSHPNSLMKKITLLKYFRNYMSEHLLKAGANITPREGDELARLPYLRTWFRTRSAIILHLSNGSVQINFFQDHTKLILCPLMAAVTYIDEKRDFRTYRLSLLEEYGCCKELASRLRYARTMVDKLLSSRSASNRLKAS
Procedure: An ELISA-based PBD-binding inhibition assay was performed essentially as described previously. […] The wells were washed once with PBS+0.05% Tween20 (PBST) and incubated with 200 μl of PBS plus 1% BSA (blocking buffer) for 1 h to prevent non-specific binding. HEK293A lysates expressing HA-EGFP-Plk1 were prepared in a TBSN [20 mM Tris-HCl (pH 8.0), 150 mM NaCl, 0.5% NP-40, 5 mM EGTA, 2 mM MgCl2, 1.5 mM EDTA, and protease inhibitor cocktail (Roche)]+20% DMSO buffer (˜20 μg total lysates in 100 μl buffer), mixed with the indicated amount of the competitors (p-T78 peptide and its derivative compounds) for 30 min, provided onto the biotinylated peptide-coated ELISA wells, and then incubated with constant rocking for 1 h at 25° C. Following the incubation, ELISA plates were washed 5 times with PBST. To detect bound HA-EGFP-Plk1, the plates were probed for 2 h with 100 μl/well of anti-HA antibody at a concentration of 0.5 μg/ml in the blocking buffer and then washed 5 times. The plates were further probed for 1 h with 100 μl/well of HRP-conjugated secondary antibody (GE Healthcare) at a 1:1,000 dilution in the blocking buffer. The plates were washed 5 times with PBST and incubated with 100 μl/well of 3,3′,5,5′-tetramethylbenzidine solution (Sigma-Aldrich, St. Louis, MO) as substrate until a desired absorbance was reached. The reactions were stopped by the addition of 100 μl/well of stop solution (Cell Signaling Technology, Danvers, MA). The optical density (O.D.) was measured at 450 nm by using a Perkin-Elmer Enspire Multimode Plate reader (PerkinElmer, Inc., Boston, MA). Data obtained from more than three independent experiments were analyzed by GraphPad (San Diego, CA) Prism software version 7.
ELISA-based PBD-binding Inhibition Assay. […] The reaction products were measured at 450 nm by using a Perkin-Elmer Enspire Multimode Plate reader (PerkinElmer, Inc., Boston, MA). Data obtained from more than three independent experiments were analyzed by GraphPad (San Diego, CA) Prism software version 7.

[2] = Microsomal metabolic stability, rat liver microsomes (RLM); conditions: rat liver microsomes
HeLa cells = test: Mitotic arrest and antiproliferation in HeLa cells (DAPI staining, cell counts); type: cell-based; conditions: for population of rounded cells with mitotically arrested or apoptotic chromosome morphologies: 25 μM, 12 h
Procedure: HeLa cells were cultured as recommended by the American Type Culture Collection (ATCC). […] Immunostaining was carried out using anti-Plk1 (Santa Cruz Biotechnology, Santa Cruz, CA), anti-Cep63 (MilliporeSigma), anti-CREST (Antibodies Incorp, Davis, CA), and anti-α-tubulin (Sigma, St. Louis, MO) antibodies.
To quantify fluorescence signal intensities, images were acquired under the same settings and the images obtained after the maximum-intensity projection of z-stacks were analyzed using the Zeiss ZEN v2.1 software (Carl Zeiss Microscopy, LLC). All the quantifications were performed with randomly chosen fields from at least three independent experiments. All values are given as mean±s. D. P values were calculated by unpaired t test from the mean data of each group in Graph Pad Prism (***P<0.001). The statistical details including the definitions and value of n (e.g., number of experimental replicates, cells, etc.) And standard deviations are provided herein.

[3] = Homo sapiens, L-363, 48 h treatment

**Q.** For `CCCn1c(=O)c2sc(C)cc2n2c(Sc3c(C(F)(F)F)ncn3C)nnc12` [76 (NCK174), 7-methyl-1-((1-methyl-4-(trifluoromethyl)-1H-imidazol-5-yl)thio)-4-propylthieno[2,3-e][1,2,4]triazolo[4,3-a]pyrimidin-5(4H)-one], which GI50 [1, 3] is on record?
**A.** The GI50 was greater than 400000 nM.

**Q.** For `CC(C)CCn1c(=O)c2ccccc2n2c(=S)[nH]nc12` [compound 25], which “Solub.” value (Aqueous solubility) is on record?
**A.** The value was 8.0 µg/mL.

**Q.** And the IC50 (full-length human Plk1)?
**A.** Its IC50 is 1.73 ± 0.08 µM.

**Q.** For `CCCn1c(=O)c2sc(C)cc2n2c(Sc3c(S(N)(=O)=O)ncn3C)nnc12` [77 (NCK175), 1-methyl-5-((7-methyl-5-oxo-4-propyl-4,5-dihydrothieno[2,3-e][1,2,4]triazolo[4,3-a]pyrimidin-1-yl)thio)-1H-imidazole-4-sulfonamide], which GI50 [1, 3] is on record?
**A.** The GI50 was greater than 400000 nM.

**Q.** What does the source list for `CCCCn1c(=O)c2ccccc2n2c(=S)[nH]nc12` [compound 23]?
**A.** t1/2 (min, RLM) [2]: >30 min; Solub. (Aqueous solubility): 8.5 µg/mL; IC50 (full-length human Plk1): 1.03 ± 0.14 µM; PAMPA: 77.5 ×10⁻⁶ cm/s

**Q.** For `CCCn1c(=O)c2cccc(F)c2n2c(=S)[nH]nc12` [compound 139, 9-fluoro-4-propyl-1-thioxo-2,4-dihydro-[1,2,4]triazolo[4,3-a]quinazolin-5(1H)-one], which “induction of mitotic arrest (rounded cells with apoptotic or aberrant chromosome morphologies)” value (HeLa cells; 100 μM) is on record?
**A.** The value was “lacked a detectable level of cellular response”.

**Q.** With `CCCn1c(=O)c2ccccc2n2c(=S)n(CC(=O)c3ccccc3)nc12` [compound 39] as the molecule, how does the IC50 (full-length human Plk1) read?
**A.** The IC50 was greater than 50 µM.

**Q.** For `Cc1cccc(-n2c(=O)c3ccccc3n3c(=S)[nH]nc23)c1C` [compound 33], which IC50 (full-length human Plk1) is on record?
**A.** Its IC50 is 1.85 ± 0.12 µM.

**Q.** With `CC(=O)Nc1ccc2c(c1)c(=O)n(CCc1ccccc1)c1n[nH]c(=S)n21` [Example 14, N-(5-oxo-4-phenethyl-1-thioxo-1,2,4,5-tetrahydro-[1,2,4]triazolo[4,3-a]quinazolin-7-yl)acetamide] as the molecule, how does the “Cell efficacy, GI50 ± sd (μM)” value ([1]; 48 h treatment) read?
**A.** Its value is “failed to induce any a detectable level of cellular response”.

**Q.** And the “population of rounded cells with mitotically arrested or apoptotic chromosome morphologies” value (HeLa cells)?
**A.** The value was “failed to show any of these phenotypes”.

**Q.** Which GI50 [1, 3] does the source give for `Cc1cc2c(s1)c(=O)n(CC1CC1)c1nnc(Sc3c([N+](=O)[O-])ncn3C)n21` [85 (NCK182), 4-(cyclopropylmethyl)-7-methyl-1-((1-methyl-4-nitro-1H-imidazol-5-yl)thio)thieno[2,3-e][1,2,4]triazolo[4,3-a]pyrimidin-5(4H)-one] here?
**A.** Its GI50 is 3110 nM.

**Q.** With `Cc1ccc(CC(=O)NCCCn2c(=O)c3cc(F)ccc3n3c(=S)[nH]nc23)cc1` [compound 126, N-(3-(7-fluoro-5-oxo-1-thioxo-1,2-dihydro-[1,2,4]triazolo[4,3-a]quinazolin-4(5H)-yl)propyl)-2-(p-tolyl)acetamide] as the molecule, how does the “t1/2 (min, RLM)” value [2] read?
**A.** Its value is 23.9 min.

**Q.** What about the “Solub.” value (Aqueous solubility) of the same molecule?
**A.** The value was 12.9 µg/mL.

**Q.** What about the “PAMPA” value (PAMPA permeability) of the same molecule?
**A.** The value was 621 ×10⁻⁶ cm/s.

**Q.** Which “t1/2 (min, RLM)” value [2] does the source give for `O=C(Cc1ccncc1)NCCCn1c(=O)c2cc(F)ccc2n2c(=S)[nH]nc12` [compound 138, N-(3-(7-fluoro-5-oxo-1-thioxo-1,2-dihydro-[1,2,4]triazolo[4,3-a]quinazolin-4(5H)-yl)propyl)-2-(pyridine-4-yl)acetamide] here?
**A.** The value was greater than 30 min.

**Q.** And the “Solub.” value (Aqueous solubility)?
**A.** Its value is 9.6 µg/mL.

**Q.** And the “PAMPA” value (PAMPA permeability)?
**A.** The value was less than 1 ×10⁻⁶ cm/s.

**Q.** For `CCOCCCn1c(=O)c2ccccc2n2c(=S)[nH]nc12` [compound 29], which “Solub.” value (Aqueous solubility) is on record?
**A.** Its value is 15.5 µg/mL.

**Q.** What about the “lower IC50 compared to 14” value (full-length human Plk1; ELISA assay) of the same molecule?
**A.** The value was 29%.

**Q.** What about the IC50 (full-length human Plk1) of the same molecule?
**A.** The IC50 was 1.68 ± 0.11 µM.

**Q.** For `CC(C)(C)OC(=O)Nc1ccc(CC(=O)NCCCn2c(=O)c3cc(F)ccc3n3c(=S)[nH]nc23)cc1` [compound 135, tert-butyl (4-(2-((3-(7-fluoro-5-oxo-1-thioxo-1,2-dihydro-[1,2,4]triazolo[4,3-a]quinazolin-4(5H)-yl)propyl)amino)-2-oxoethyl)phenyl)carbamate], which “t1/2 (min, RLM)” value [2] is on record?
**A.** The value was greater than 30 min.

**Q.** What about the “Solub.” value (Aqueous solubility) of the same molecule?
**A.** Its value is 17.4 µg/mL.

**Q.** And the “PAMPA” value (PAMPA permeability)?
**A.** Its value is 910 ×10⁻⁶ cm/s.

**Q.** Which results are given for `O=C(Cc1ccc(Br)cc1)NCCCn1c(=O)c2cc(F)ccc2n2c(=S)[nH]nc12` [compound 125, 2-(4-bromophenyl)-N-(3-(7-fluoro-5-oxo-1-thioxo-1,2-dihydro-[1,2,4]triazolo[4,3-a]quinazolin-4(5H)-yl)propyl)acetamide]?
**A.** t1/2 (min, RLM) [2]: 20.6 min; Solub. (Aqueous solubility): <1 µg/mL; PAMPA (PAMPA permeability): 767 ×10⁻⁶ cm/s

**Q.** Which results are given for `O=c1c2cc(F)ccc2n2c(=S)[nH]nc2n1CCc1ccncc1` [compound 85]?
**A.** GI50 ([1]; 48 h treatment): 3110 nM; t1/2 (min, RLM) [2]: >30 min; Solub. (Aqueous solubility): 10.9 µg/mL; population of rounded cells with mitotically arrested or apoptotic chromosome morphologies (HeLa cells): induced Plk1 delocalization and mitotic arrest at a level similar to those of compound 75

**Q.** With `CCCn1c(=O)c2sc(C)cc2n2c(Sc3c([N+](=O)[O-])ncn3C)nnc12` [75 (NCK173), 7-methyl-1-((1-methyl-4-nitro-1H-imidazol-5-yl)thio)-4-propylthieno[2,3-e][1,2,4]triazolo[4,3-a]pyrimidin-5(4H)-one] as the molecule, how does the GI50 [1, 3] read?
**A.** The GI50 was 4140 ± 310 nM.

**Q.** Which GI50 [1, 3] does the source give for `CCCn1c(=O)c2cccc(F)c2n2c(Sc3c([N+](=O)[O-])ncn3C)nnc12` [73 (NCK167), 9-fluoro-1-((1-methyl-4-nitro-1H-imidazol-5-yl)thio)-4-propyl-[1,2,4]triazolo[4,3-a]quinazolin-5(4H)-one] here?
**A.** Its GI50 is 14000 ± 390 nM.

**Q.** Which GI50 [1, 3] does the source give for `CCCn1c(=O)c2scc(C)c2n2c(Sc3c([N+](=O)[O-])ncn3C)nnc12` [74 (NCK170), 8-methyl-1-((1-methyl-4-nitro-1H-imidazol-5-yl)thio)-4-propylthieno[2,3-e][1,2,4]triazolo[4,3-a]pyrimidin-5(4H)-one] here?
**A.** The GI50 was 25800 ± 260 nM.

**Q.** With `O=C(Cc1cccnc1)NCCCn1c(=O)c2cc(F)ccc2n2c(=S)[nH]nc12` [compound 137, N-(3-(7-Fluoro-5-oxo-1-thioxo-1,2-dihydro-[1,2,4]triazolo[4,3-a]quinazolin-4(5H)-yl)propyl)-2-(pyridine-3-yl)acetamide] as the molecule, how does the “t1/2 (min, RLM)” value [2] read?
**A.** The value was greater than 30 min.

**Q.** And the “Solub.” value (Aqueous solubility)?
**A.** The value was 31.8 µg/mL.

**Q.** What about the “PAMPA” value (PAMPA permeability) of the same molecule?
**A.** Its value is 21.0 ×10⁻⁶ cm/s.

**Q.** Which “Solub.” value (Aqueous solubility) does the source give for `CCCCCn1c(=O)c2ccccc2n2c(=S)[nH]nc12` [compound 24] here?
**A.** The value was 4.2 µg/mL.

**Q.** What about the IC50 (full-length human Plk1) of the same molecule?
**A.** Its IC50 is 1.97 ± 0.11 µM.

**Q.** For `C=CCn1c(=O)c2ccccc2n2c(=S)[nH]nc12` [compound 22], which “Solub.” value (Aqueous solubility) is on record?
**A.** Its value is 19.4 µg/mL.

**Q.** And the IC50 (full-length human Plk1)?
**A.** The IC50 was 1.31 ± 0.03 µM.

**Q.** Which results are given for `COc1ccccc1CC(=O)NCCCn1c(=O)c2cc(F)ccc2n2c(=S)[nH]nc12` [compound 128, N-(3-(7-fluoro-5-oxo-1-thioxo-1,2-dihydro-[1,2,4]triazolo[4,3-a]quinazolin-4(5H)-yl)propyl)-2-(2-methoxyphenyl)acetamide]?
**A.** t1/2 (min, RLM) [2]: 16.1 min; Solub. (Aqueous solubility): >65 µg/mL; PAMPA (PAMPA permeability): 379 ×10⁻⁶ cm/s

**Q.** Which “Solub.” value (Aqueous solubility) does the source give for `COCCCn1c(=O)c2ccccc2n2c(=S)[nH]nc12` [compound 28] here?
**A.** Its value is 31.2 µg/mL.

**Q.** What about the IC50 (full-length human Plk1) of the same molecule?
**A.** The IC50 was 1.75 ± 0.19 µM.

**Q.** Which results are given for `O=c1c2cc(F)ccc2n2c(=S)[nH]nc2n1CCc1ccc(Cl)cc1` [Example 43, 4-(4-chlorophenethyl)-7-fluoro-1-thioxo-2,4-dihydro-[1,2,4]triazolo[4,3-a]quinazolin-5(1H)-one]?
**A.** Cell efficacy, GI50 ± sd (μM) ([1]; 48 h treatment): failed to induce any a detectable level of cellular response; population of rounded cells with mitotically arrested or apoptotic chromosome morphologies (HeLa cells): failed to show any of these phenotypes
